Columns and labels:
Assay in all cases: relative viability (nuclei count vs DMSO), 5 days (fraction); higher = more cells survive
LCLC-103H = test system: LCLC-103H
Method in brief: (§1)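 Cells from lung cancer lines were seeded into 1536-well plates and, one day later, dosed by pin tool. Treatments were either a single drug or a fixed dose of an anchor drug with five library-drug doses (not always all listed) in √10 steps. After 5 days, nuclei were stained in a one-step fixation (final 0.05% Triton X-100, 1% formaldehyde, 1 ug/ml Hoechst) and counted on 4× images, and relative viability is the treated-to-vehicle nuclei ratio, as the median of duplicate plates.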

LXF-289 = test system: LXF-289
Method in brief: as §1

NCI-H1355 = test system: NCI-H1355
Method in brief: as §1

NCI-H1563 = test system: NCI-H1563
Method in brief: as §1

NCI-H1651 = test system: NCI-H1651
Method in brief: as §1

NCI-H1755 = test system: NCI-H1755
Method in brief: as §1

NCI-H1792 = test system: NCI-H1792
Method in brief: as §1

NCI-H1915 = test system: NCI-H1915
Method in brief: as §1

NCI-H2170 = test system: NCI-H2170
Method in brief: as §1

NCI-H2347 = test system: NCI-H2347
Method in brief: as §1

NCI-H3122 = test system: NCI-H3122
Method in brief: as §1

NCI-H322M = test system: NCI-H322M
Method in brief: as §1

NCI-H441 = test system: NCI-H441
Method in brief: as §1

NCI-H460 = test system: NCI-H460
Method in brief: as §1

NCI-H520 = test system: NCI-H520
Method in brief: as §1

NCI-H596 = test system: NCI-H596
Method in brief: as §1

NCI-H650 = test system: NCI-H650
Method in brief: as §1

NCI-H661 = test system: NCI-H661
Method in brief: as §1

NCI-H727 = test system: NCI-H727
Method in brief: as §1

PC-14 = test system: PC-14
Method in brief: as §1

RERF-LC-KJ = test system: RERF-LC-KJ
Method in brief: as §1

SK-MES-1 = test system: SK-MES-1
Method in brief: as §1

SW 900 = test system: SW 900
Method in brief: as §1

Which results are given for `CC1(C)CCC(c2ccc(Cl)cc2)=C(CN2CCN(c3ccc(C(=O)NS(=O)(=O)c4ccc(N[C@H](CCN5CCOCC5)CSc5ccccc5)c(S(=O)(=O)C(F)(F)F)c4)cc3)CC2)C1` [Navitoclax] + COc1cccc2cc(-c3nc([C@H]4CC[C@H](C(=O)O)CC4)n4ncnc(N)c34)[nH]c12 [OSI-027] (partner 0.5 µM)?
relative viability (LCLC-103H; first compound 0.005 µM): 0.462; relative viability (LCLC-103H; first compound 0.01581 µM): 0.449; relative viability (LCLC-103H; first compound 0.05 µM): 0.399; relative viability (LCLC-103H; first compound 0.1581 µM): 0.479; relative viability (LCLC-103H; first compound 0.5 µM): 0.533; relative viability (LXF-289; first compound 0.005 µM): 0.77; relative viability (LXF-289; first compound 0.01581 µM): 0.867; relative viability (LXF-289; first compound 0.05 µM): 0.731; relative viability (LXF-289; first compound 0.1581 µM): 0.753; relative viability (LXF-289; first compound 0.5 µM): 0.795; relative viability (NCI-H1355; first compound 0.005 µM): 0.447; relative viability (NCI-H1355; first compound 0.01581 µM): 0.469; relative viability (NCI-H1355; first compound 0.05 µM): 0.425; relative viability (NCI-H1355; first compound 0.1581 µM): 0.397; relative viability (NCI-H1355; first compound 0.5 µM): 0.431; relative viability (NCI-H1563; first compound 0.005 µM): 0.737; relative viability (NCI-H1563; first compound 0.01581 µM): 0.809; relative viability (NCI-H1563; first compound 0.05 µM): 0.756; relative viability (NCI-H1563; first compound 0.1581 µM): 0.824; relative viability (NCI-H1563; first compound 0.5 µM): 0.812; relative viability (NCI-H1651; first compound 0.005 µM): 0.685; relative viability (NCI-H1651; first compound 0.01581 µM): 0.795; relative viability (NCI-H1651; first compound 0.05 µM): 0.813; relative viability (NCI-H1651; first compound 0.1581 µM): 0.782; relative viability (NCI-H1651; first compound 0.5 µM): 0.721; relative viability (NCI-H1755; first compound 0.005 µM): 0.683; relative viability (NCI-H1755; first compound 0.01581 µM): 0.834; relative viability (NCI-H1755; first compound 0.05 µM): 0.612; relative viability (NCI-H1755; first compound 0.1581 µM): 0.649; relative viability (NCI-H1755; first compound 0.5 µM): 0.671; relative viability (NCI-H1792; first compound 0.005 µM): 0.747; relative viability (NCI-H1792; first compound 0.01581 µM): 0.799; relative viability (NCI-H1792; first compound 0.05 µM): 0.667; relative viability (NCI-H1792; first compound 0.1581 µM): 0.726; relative viability (NCI-H1792; first compound 0.5 µM): 0.705; relative viability (NCI-H1915; first compound 0.005 µM): 0.595; relative viability (NCI-H1915; first compound 0.01581 µM): 0.636; relative viability (NCI-H1915; first compound 0.05 µM): 0.627; relative viability (NCI-H1915; first compound 0.1581 µM): 0.521; relative viability (NCI-H1915; first compound 0.5 µM): 0.629; relative viability (NCI-H2170; first compound 0.005 µM): 0.669; relative viability (NCI-H2170; first compound 0.01581 µM): 0.814; relative viability (NCI-H2170; first compound 0.05 µM): 0.787; relative viability (NCI-H2170; first compound 0.1581 µM): 0.647; relative viability (NCI-H2170; first compound 0.5 µM): 0.551; relative viability (NCI-H2347; first compound 0.005 µM): 0.485; relative viability (NCI-H2347; first compound 0.01581 µM): 0.451; relative viability (NCI-H2347; first compound 0.1581 µM): 0.293; relative viability (NCI-H2347; first compound 0.5 µM): 0.401; relative viability (NCI-H3122; first compound 0.005 µM): 0.98; relative viability (NCI-H3122; first compound 0.01581 µM): 0.949; relative viability (NCI-H3122; first compound 0.05 µM): 1.04; relative viability (NCI-H3122; first compound 0.1581 µM): 0.902; relative viability (NCI-H3122; first compound 0.5 µM): 0.978; relative viability (NCI-H322M; first compound 0.005 µM): 0.536; relative viability (NCI-H322M; first compound 0.01581 µM): 0.696; relative viability (NCI-H322M; first compound 0.05 µM): 0.552; relative viability (NCI-H322M; first compound 0.1581 µM): 0.545; relative viability (NCI-H322M; first compound 0.5 µM): 0.706; relative viability (NCI-H441; first compound 0.005 µM): 0.732; relative viability (NCI-H441; first compound 0.01581 µM): 0.635; relative viability (NCI-H441; first compound 0.05 µM): 0.58; relative viability (NCI-H441; first compound 0.1581 µM): 0.56; relative viability (NCI-H441; first compound 0.5 µM): 0.849; relative viability (NCI-H460; first compound 0.005 µM): 0.652; relative viability (NCI-H460; first compound 0.01581 µM): 0.702; relative viability (NCI-H460; first compound 0.05 µM): 0.821; relative viability (NCI-H460; first compound 0.1581 µM): 0.652; relative viability (NCI-H460; first compound 0.5 µM): 0.671; relative viability (NCI-H520; first compound 0.01581 µM): 0.231; relative viability (NCI-H520; first compound 0.05 µM): 0.318; relative viability (NCI-H520; first compound 0.1581 µM): 0.201; relative viability (NCI-H520; first compound 0.5 µM): 0.31; relative viability (NCI-H596; first compound 0.005 µM): 0.765; relative viability (NCI-H596; first compound 0.01581 µM): 0.684; relative viability (NCI-H596; first compound 0.1581 µM): 0.953; relative viability (NCI-H596; first compound 0.5 µM): 0.8; relative viability (NCI-H650; first compound 0.005 µM): 0.525; relative viability (NCI-H650; first compound 0.01581 µM): 0.569; relative viability (NCI-H650; first compound 0.05 µM): 0.525; relative viability (NCI-H650; first compound 0.1581 µM): 0.498; relative viability (NCI-H650; first compound 0.5 µM): 0.547; relative viability (NCI-H661; first compound 0.005 µM): 0.734; relative viability (NCI-H661; first compound 0.01581 µM): 0.775; relative viability (NCI-H661; first compound 0.05 µM): 0.793; relative viability (NCI-H661; first compound 0.1581 µM): 0.687; relative viability (NCI-H661; first compound 0.5 µM): 0.716; relative viability (NCI-H727; first compound 0.005 µM): 0.675; relative viability (NCI-H727; first compound 0.01581 µM): 0.692; relative viability (NCI-H727; first compound 0.1581 µM): 0.663; relative viability (NCI-H727; first compound 0.5 µM): 0.728; relative viability (PC-14; first compound 0.005 µM): 0.735; relative viability (PC-14; first compound 0.01581 µM): 1.12; relative viability (PC-14; first compound 0.05 µM): 0.767; relative viability (PC-14; first compound 0.1581 µM): 0.842; relative viability (PC-14; first compound 0.5 µM): 0.748; relative viability (RERF-LC-KJ; first compound 0.005 µM): 0.568; relative viability (RERF-LC-KJ; first compound 0.01581 µM): 0.633; relative viability (RERF-LC-KJ; first compound 0.05 µM): 0.498; relative viability (RERF-LC-KJ; first compound 0.1581 µM): 0.599; relative viability (RERF-LC-KJ; first compound 0.5 µM): 0.616; relative viability (SK-MES-1; first compound 0.005 µM): 0.624; relative viability (SK-MES-1; first compound 0.01581 µM): 0.681; relative viability (SK-MES-1; first compound 0.05 µM): 0.525; relative viability (SK-MES-1; first compound 0.1581 µM): 0.579; relative viability (SK-MES-1; first compound 0.5 µM): 0.63; relative viability (SW 900; first compound 0.005 µM): 0.497; relative viability (SW 900; first compound 0.01581 µM): 0.681; relative viability (SW 900; first compound 0.05 µM): 0.534; relative viability (SW 900; first compound 0.1581 µM): 0.395; relative viability (SW 900; first compound 0.5 µM): 0.546
